BindingDB's records for doi:10.1007/s10822-022-00478-x (Roche Innovation Center Basel, F. Hoffmann-La Roche Ltd., 2022)

Molecular target: cAMP and cAMP-inhibited cGMP 3',5'-cyclic phosphodiesterase 10A (Homo sapiens, UniProt Q9Y233)
Test: PDE10A assay
How it was run: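 Human PDE10A (2 ng/well) preincubated 15 min RT with compound in HEPES pH 7.5, 10 mM MgCl2, BSA, then reacted 15 min with 50 nM [3H]cGMP/cGMP substrate. Stopped with Y-Si SPA beads; bound radioactivity counted, IC50 from four-parameter logistic, pIC50 = −log10(IC50).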

IC50 | Structure (SMILES)
295 nM | CC(C)(C)OCCCNC(=O)c1nc(C2CC2)cnc1Nc1cncnc1 [Roche-Dataset for PDE10A, Compound 968]
120 nM | Cn1ncc(C(=O)N2CCC2)c1C(=O)Nc1ccn(Cc2ccc(Cl)cc2)n1 [Roche-Dataset for PDE10A, Compound 970]
1140 nM | CNC(=O)[C@@H]1CCC[C@H]1NC(=O)c1nc(C2CC2)cnc1Nc1cncnc1 [Roche-Dataset for PDE10A, Compound 971]
166 nM | Cc1c(Cl)cc(Cl)c2nc(CCc3nccn3C)nn12 [Roche-Dataset for PDE10A, Compound 972]
36 nM | CC(=O)c1ccc(NC(=O)c2nc(C3CC3)ccc2Nc2cncnc2)s1 [Roche-Dataset for PDE10A, Compound 974]
6170 nM | O=C(c1nc(C2CC2)cnc1Nc1cncnc1)N1CCN(c2ccccc2F)CC1 [Roche-Dataset for PDE10A, Compound 975]
826 nM | CC(C)(C)CC(C)(C)NC(=O)c1nc(C2CC2)cnc1Nc1cncnc1 [Roche-Dataset for PDE10A, Compound 976]
79 nM | COc1ccc(Cn2ccc(NC(=O)c3c(C(=O)N4CCC4)cnn3C)n2)cc1 [Roche-Dataset for PDE10A, Compound 977]
192 nM | Cn1ncc(C(=O)N2CCC2)c1C(=O)Nc1ccn(Cc2ccncc2)n1 [Roche-Dataset for PDE10A, Compound 978]
2670 nM | Cc1ncoc1C(=O)Nc1cc(-c2ccccn2)nn1C [Roche-Dataset for PDE10A, Compound 979]
309 nM | Cc1c(Cl)cc(Cl)c2nc(CCc3ccn(C)n3)nn12 [Roche-Dataset for PDE10A, Compound 980]
71 nM | COc1ccc2c(=O)n(C)c3c(C)nc(-c4cccc(Cl)c4)n3c2c1 [Roche-Dataset for PDE10A, Compound 981]
28 nM | Cc1nc2cc(Cl)ccc2nc1OCc1nc(N2CCCC2)nn1C [Roche-Dataset for PDE10A, Compound 982]
1270 nM | Cc1ncc(C)n2nc(CCc3nc(N4CCCOCC4)nn3C)nc12 [Roche-Dataset for PDE10A, Compound 984]
4900 nM | CCCCc1cc(NC(=O)c2c(C(=O)N3CCC3)cnn2C)[nH]n1 [Roche-Dataset for PDE10A, Compound 985]
270 nM | Cc1nc(CCNC(=O)c2nc(C3CC3)ccc2Nc2cncnc2)n[nH]1 [Roche-Dataset for PDE10A, Compound 986]
6.54 nM | Cc1nc(-c2ccccc2Cl)n2c3cc(Cl)ccc3c(=O)n(C)c12 [Roche-Dataset for PDE10A, Compound 987]
5780 nM | O=C(NCC1CCOCC1)c1nc(C2CC2)cnc1Nc1cncnc1 [Roche-Dataset for PDE10A, Compound 988]
7900 nM | Cc1cncc(CCc2nc(N3CCCC3)nn2C)n1 [Roche-Dataset for PDE10A, Compound 989]
15 nM | O=C(Nc1conc1-c1ccccn1)c1nc(C2CC2)ccc1Nc1cncnc1 [Roche-Dataset for PDE10A, Compound 990]
9440 nM | Cn1ncc(C(=O)N2CCC2)c1C(=O)Nc1cc(C2CCCCC2)n[nH]1 [Roche-Dataset for PDE10A, Compound 991]
10000 nM | CC(=O)N1CCC(NC(=O)c2nc(C3CC3)cnc2Nc2cncnc2)CC1 [Roche-Dataset for PDE10A, Compound 993]
2150 nM | Cc1ncn(-c2ccccc2)c1C(=O)Nc1cc(-c2ccccn2)nn1C [Roche-Dataset for PDE10A, Compound 994]
21 nM | O=C(Nc1cnccc1Cl)c1nc(C2CC2)ccc1Nc1cncnc1 [Roche-Dataset for PDE10A, Compound 995]
511 nM | Cc1c(Cl)cc(Cl)c2nc(CCc3nccs3)nn12 [Roche-Dataset for PDE10A, Compound 996]
696 nM | CNC(=O)[C@H]1CCC[C@@H]1NC(=O)c1nc(C2CC2)cnc1Nc1cncnc1 [Roche-Dataset for PDE10A, Compound 1000]
434 nM | O=C(Nc1cn(-c2ccccn2)cn1)c1nc(C2CC2)ccc1Br [Roche-Dataset for PDE10A, Compound 1003]
